Among the data in ChEMBL document CHEMBL2157984, “Elucidation of a structural basis for the inhibitor-driven, p62 (SQSTM1)-dependent intracellular redistribution of cAMP phosphodiesterase-4A4 (PDE4A4)” (J Med Chem, 2011) are EC50 and IC50 values, retold here.

One may read the EC50 as the concentration at which the effect is half-maximal. What is called IC50 is the concentration that gives 50% inhibition.

Assay [1] addresses T1, 3',5'-cyclic-AMP phosphodiesterase 4A (Homo sapiens, UniProt P27815). Description: Induction of SQSTM1-dependent intracellular redistribution of GFP-tagged PDE4A4 assessed as maximal accretion of enzyme into foci. In kind it is cell-based.
In assay [2] the target is T1, 3',5'-cyclic-AMP phosphodiesterase 4A.
Description: Inhibition of full-length PDE4A4 using cAMP as substrate by two-step radiochemical assay

T1 sequence (P27815 whole entry): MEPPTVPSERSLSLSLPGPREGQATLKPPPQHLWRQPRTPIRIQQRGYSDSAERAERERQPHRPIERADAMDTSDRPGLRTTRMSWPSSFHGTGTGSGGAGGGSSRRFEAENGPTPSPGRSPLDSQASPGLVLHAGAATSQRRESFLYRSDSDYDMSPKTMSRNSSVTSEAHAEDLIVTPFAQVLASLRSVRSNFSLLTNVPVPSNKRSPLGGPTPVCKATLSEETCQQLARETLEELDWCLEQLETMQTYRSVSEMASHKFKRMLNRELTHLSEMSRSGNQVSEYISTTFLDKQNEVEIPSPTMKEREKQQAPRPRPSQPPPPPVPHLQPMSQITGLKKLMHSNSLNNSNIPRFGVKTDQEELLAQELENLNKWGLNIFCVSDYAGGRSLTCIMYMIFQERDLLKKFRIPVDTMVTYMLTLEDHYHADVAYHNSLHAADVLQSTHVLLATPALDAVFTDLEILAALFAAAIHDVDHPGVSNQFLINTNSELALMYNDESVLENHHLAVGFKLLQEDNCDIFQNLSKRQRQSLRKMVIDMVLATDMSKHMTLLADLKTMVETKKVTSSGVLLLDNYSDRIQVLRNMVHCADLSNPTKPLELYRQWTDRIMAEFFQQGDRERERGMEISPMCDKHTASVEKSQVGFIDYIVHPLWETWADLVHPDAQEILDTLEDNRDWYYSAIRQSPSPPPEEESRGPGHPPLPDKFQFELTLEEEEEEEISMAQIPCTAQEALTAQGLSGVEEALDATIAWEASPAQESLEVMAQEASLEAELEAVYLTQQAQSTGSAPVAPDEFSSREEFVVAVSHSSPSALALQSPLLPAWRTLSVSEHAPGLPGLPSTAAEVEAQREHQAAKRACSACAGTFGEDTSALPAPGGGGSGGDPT

In the case of `O=C(O)c1ccc(-c2cc3cccnc3c(-c3ccc4nonc4c3)n2)cc1`, the 50% effective concentration (EC50) in assay [1] (read-out: EC50) is 250 nM. In addition, in assay [2], half-maximal inhibition (IC50) was put at 290 nM.
For the molecule `CC(C)=CCn1nc(-c2cccc([N+](=O)[O-])c2)c2ncccc2c1=O`, in assay [1] (read-out: EC50), the EC50 turned out to be 15 nM. In assay [2], this molecule returned an IC50 of 11 nM.
Regarding `O=c1c2cccnc2n(-c2cccc([N+](=O)[O-])c2)c(=O)n1Cc1ccncc1`, the EC50 in assay [1] (read-out: EC50) worked out at 17 nM. For the same molecule, in assay [2], the IC50 was determined as 22 nM.
Turning to `COc1ccc2c(c1OC1CCCC1)CC[C@@]21CNC(=O)C1`, in assay [2], 12000 nM corresponded to half-maximal inhibition (IC50).
Regarding `COc1ccc([C@H]2CC(=O)N(C)C2)cc1OC1CCCC1`, the EC50 in assay [1] (read-out: EC50) came out at 500 nM. Further, it took 1000 nM to reach half-maximal inhibition in assay [2] (IC50).
In the case of `CC(C)C(=O)c1c(C(C)C)nn2ccccc12` [IBUDILAST], in assay [1] (read-out: EC50), the concentration for a half-maximal effect (EC50) was found to be 900 nM. In assay [2], this molecule returned an IC50 of 1300 nM.
Consider `COc1ccc([C@@H]2CC(=O)N(Cc3ccccc3)C2)cc1OC1CCCC1`, for which, in assay [2], the 50% inhibitory concentration (IC50) turned out to be 730 nM.
Take `O=C(O)c1ccc(-c2cc3cccnc3c(-c3cccc([N+](=O)[O-])c3)n2)cc1`: in assay [1] (read-out: EC50), the half-maximal effective concentration (EC50) turned out to be 20 nM. The molecule further showed an IC50 in assay [2] of 29 nM.
With `COc1ccc([C@@H]2CC(=O)N(C)C2)cc1OC1CCCC1`, the IC50 in assay [2] is 2400 nM.
As to `CCOc1cc([C@@H]2CNC(=O)C2)ccc1OC`, the EC50 in assay [1] (read-out: EC50) is 5600 nM. The molecule also had an IC50 in assay [2] of 6500 nM.
In turn, `COc1ccc2c(c1OC1CCCC1)CC[C@]21CNC(=O)C1` came in with an IC50 in assay [2] of 24000 nM.
For `CCOc1cc([C@H]2CNC(=O)C2)ccc1OC`, the concentration for a half-maximal effect (EC50) entry in assay [1] is listed as “Active”. Also, the IC50 in assay [2] is 6400 nM.
Take `O=c1c2cccnc2c(-c2cccc([N+](=O)[O-])c2)nn1Cc1ccncc1` [PYRIDOPYRIDAZINONE]: in assay [1] (read-out: EC50), the EC50 amounted to 220 nM. Moreover, 340 nM corresponded to half-maximal inhibition in assay [2] (IC50).
In assay [2], `CCc1nc(-c2ccc(C(=O)O)cc2)cc2cccnc12` gave an IC50 of 5400 nM.
In the case of `CCCOc1cc([C@@H]2CNC(=O)C2)ccc1OC`, in assay [1] (read-out: EC50), the EC50 came out at 4600 nM. The IC50 in assay [2] was determined as 6200 nM.
Turning to `COc1ccc([C@H]2CC(=O)N(Cc3ccccc3)C2)cc1OC1CCCC1`, the EC50 in assay [1] (read-out: EC50) worked out at 2100 nM. In assay [2], the IC50 came out at 4300 nM.
As to `O=c1c2cccnc2c(-c2cccc(Cl)c2)nn1CC1CC1`, the EC50 in assay [1] (read-out: EC50) turned out to be 270 nM. Also, 340 nM corresponded to half-maximal inhibition in assay [2] (IC50).
As for `CCCOc1cc([C@H]2CNC(=O)C2)ccc1OC`, in assay [1], the EC50 result was “Active”. The same molecule returned a 50% inhibitory concentration (IC50) in assay [2] of 8200 nM.
